# According to patent US5440036A, “1,4-benzoxazine derivatives” (SS Pharmaceutical Co., Ltd., priority 1992, dated 1995):
# pIC50: −log10 of the molar value.
# Test system: endothelium-ablated preparations of the rat aorta
# Test: Vasorelaxing effect to endothelium-ablated preparations of the rat aorta
# Conditions: 10 min; endothelium-ablated rat aorta rings, contraction by 30 mM K^+, 37° C., sample compound cumulatively applied at intervals of 10 minutes; read-out: IC50 (50% inhibition concentration)
# Procedure: Vasorelaxing effect to endothelium-ablated preparations of the rat aorta:
# The aorta of each rat (body weight: 200 to 330 g) was isolated and cut at a width of about 3 mm. Endothelium was then ablated off to form a ring preparation. That preparation was incubated at 37° C., and then suspended under a load of 2 g in 10 ml of the Krebs-Henseleit solution which had been aerated with a mixed gas (95% O2, 5% CO2). Tension was isometrically recorded via an FD transducer ("T2-30-240", trade name; manufactured by Orientec) and a dynamic strain gauge ("6M81", trade name; manufactured by NEC-San-ei) Upon an elapsed time of 60 minutes or longer subsequent to the suspension, that is, after the preparation had become stable, 10^-7 M noradrenaline (Nor) was applied several times. Under contraction by 10^-7 M Nor, 10^-7 acetylcholine was applied. Preparations which were not relaxed by the application of 10^-7 acetylcholine were used in the experiment. 30 mM K^+ were applied. From the time point that its contraction had became uniform, a sample compound was cumulatively applied at intervals of 10 minutes so that the 50% inhibition concentration (IC50) was calculated.
row,Structure (SMILES),pIC50
1,"CC1(C)Oc2ccc(C#N)cc2[C@@H](N2CCCC2=O)[C@@H]1O (racemic) [Cromakalim, (±)-trans-6-cyano-2,2-dimethyl-4-(2-oxopyrrolidin-1-yl)-3,4-dihydro-2H-1-benzopyran-3-ol, reference compound]",6.87
2,CC1(C)CN(NC(=O)c2cccnc2)c2cc(S(=O)(=O)C(F)(F)F)ccc2O1 [compound 58],7.84
3,"CCC(=O)NN1CC(C)(C)Oc2ccc([N+](=O)[O-])cc21 [Compound No. 8, 2,2-Dimethyl-6-nitro-4-propanoylamino-1,4-benzoxazine]",7.90
4,CC1(C)CN(NC(=O)c2cccnc2)c2cc(C(F)(F)F)ccc2O1 [compound 20],7.29
5,CCC1(CC)CN(NC(C)=O)c2cc(C(F)(F)F)ccc2O1 [compound 24],7.42
6,C=CC(=O)NN1CC(C)(C)Oc2ccc([N+](=O)[O-])cc21 [compound 11],7.54

# Further lines, results first:
row,pIC50,Structure (SMILES)
1,7.82,CCC(=O)NN1CC(C)(C)Oc2ccc(S(=O)(=O)C(F)(F)F)cc21 [compound 57]
2,8.02,CC(=O)NN1CC(C)(C)Oc2ccc(S(=O)(=O)C(F)(F)F)cc21 [compound 56]
3,7.47,CC(=O)NN1CC(C)(C)Oc2ccc(S(=O)(=O)C(F)(F)C(F)(F)F)cc21 [compound 27]
